Where two headings read alike, the source gives them in different places.

One experiment deals with NCI-H838 cells. Nature of the experiment: Cell viability assay (CCK-8). The format is cell-based. The settings on record: Homo sapiens. The protocol: (§1) KRAS-mutant and wild-type cells are listed in Supplementary Table S7.
(§2) For the adherent cell viability assay, cells in the logarithmic growth phase were seeded in 96-well culture plates at a density of 5×103 well-1 and incubated overnight. Diluted compounds or DMSO were added, or specific treatments were incubated at 37 °C and 5% CO2 for 24 h or 48 h. Cell viability was determined using CCK-8 or CellLightTM Cell Viability Assay Kit, according to the manufacturer's protocol. The luminescence signals of the treated samples were normalized to those of the DMSO group. […]

The test system of a further experiment is NCI-H358 cells. The experiment is described as follows: Cell viability assay (CCK-8). The note with it: Homo sapiens. The format is cell-based. The protocol: as §1, §2
The subject of another experiment is SNU-C2A cells. The experiment is described as follows: Cell viability assay (CCK-8). The format is cell-based. The protocol: as §1, §2
The subject of a further experiment is NCI-H1915 cells. The experiment is described as follows: Cell viability assay (CCK-8). The format is cell-based. The procedure: as §1, §2
Another experiment deals with SW1116 cells. The experiment is described as follows: Cell viability assay (CCK-8). The experiment is classed as cell-based. The settings on record: Homo sapiens, SW 1116. The procedure:
as §1, §2

A further experiment concerns NCI-H1755 cells. Nature of the experiment: Cell viability assay (CCK-8). The format is cell-based. The note with it: Homo sapiens. The protocol: as §1, §2
For another experiment, the system named is HCT116 cells. The experiment is described as follows: Cell viability assay (CCK-8). The experiment is classed as cell-based. The note with it: Homo sapiens, HCT-116. The procedure: as §1, §2
The test system of the next experiment is NCI-H1693 cells. The experiment is described as follows: Cell viability assay (CCK-8). The experiment is classed as cell-based. The note with it: Homo sapiens. The procedure:
as §1, §2

For a further experiment, the system named is NCI-H1944 cells. The experiment is described as follows: Cell viability assay (CCK-8). The settings on record: Homo sapiens. The experiment is classed as cell-based. The procedure: as §1, §2
The test system of the next experiment is NCI‐H2122 and A549 cells. The experiment is described as follows: Intracellular ATP assay. The experiment is classed as cell-based, human. The settings on record: monolayer 24 h and 3D culture 48 h. The procedure: supplies are listed in Supplementary Table S5. […]
For the adherent cell viability assay, cells in the logarithmic growth phase were seeded in 96-well culture plates at a density of 5×103 well-1 and incubated overnight. Diluted compounds or DMSO were added, or specific treatments were incubated at 37 °C and 5% CO2 for 24 h or 48 h. Cell viability was determined using CCK-8 or CellLightTM Cell Viability Assay Kit, according to the manufacturer's protocol. The luminescence signals of the treated samples were normalized to those of the DMSO group.
For spherical cell viability assays, cells in the logarithmic growth phase were inoculated ata density of 4×10^3 well-1 into 96-well spherical cell microplates and incubated at 37 °C, 5% CO2 for 24 h or 48 h. Cell viability was measured using the CellTiter-Glo® Luminescent Cell Viability 3D Cell Viability Assay Kit, according to the manufacturer’s protocol. The remaining steps were the same as those described above. […]

In a further experiment the test system is HCC827 cells. The experiment is described as follows: Cell viability assay (CCK-8). The format is cell-based. The settings on record: Homo sapiens; HCC827, RAS-wild type, 24 h. The protocol: (§3) supplies are listed in Supplementary Table S5. The relevant reagents for protein extraction from Escherichia coli are listed in Supplementary Table S6. Inhibitory effects of embelin on KRAS-mutant and wild-type cells are listed in Supplementary Table S7.
as §2

In a further experiment the test system is SW620 cells. The experiment is described as follows: Cell viability assay (CCK-8). The note with it: Homo sapiens, SW-620. The experiment is classed as cell-based. The procedure:
as §3, §2

The next experiment addresses T1, His‐ΔSHP2^K325A (Homo sapiens, UniProt Q06124, K325A).
T1 construct: His‐ΔSHP2, encompassing the peptide from amino acids 205–593 retaining PTP activity; His; made in house; host or cells: E. coli BL21
Nature of the experiment: Isothermal titration calorimetry. The format is binding. The note with it: read-out: KD value (ITC). The protocol:
The purified His‐ΔSHP2, His‐SHP2, or His‐ΔSHP2^K325A proteins were dialyzed overnight in dialysis buffer (20 mM HEPES, 0.15 M NaCl, 1 mM TCEP, 10% glycerol, pH 7.5). The protein concentration was determined using the BCA Protein Assay Kit, and the purity of the proteins was detected by Coomassie Brilliant Blue staining. ITC experiments were performed when the protein concentration was higher than 2 mg mL^−1 and the purity was greater than 90%. The instrument (Malvern Instruments, USA) was considered to be functioning optimally for compound and protein titration experiments when the DP value was < 0.05 µcal s^−1 by the water droplet experiment. After the sample cell was cleaned twice with protein dialysis buffer, a protein sample (300 µL) was loaded to the sample cell, an equal amount of ultrapure water was added to the reference cell, and the compound solution dissolved with the same dialysis buffer was put into the corresponding cell, in which the protein‐compound molar ratio was 1:10–1:20. The parameters were adjusted based on the curve‐fitting results to determine the optimal binding concentration gradient. Based on the exothermic changes in the reaction, the entropy increase and enthalpy change were analyzed using software fitting to obtain parameters such as the binding coefficient and affinity constant between the small molecules and proteins. […]
A general note: ITC needs no label: the signal is the heat of the interaction.

T1 sequence (Q06124 205-593 K325A): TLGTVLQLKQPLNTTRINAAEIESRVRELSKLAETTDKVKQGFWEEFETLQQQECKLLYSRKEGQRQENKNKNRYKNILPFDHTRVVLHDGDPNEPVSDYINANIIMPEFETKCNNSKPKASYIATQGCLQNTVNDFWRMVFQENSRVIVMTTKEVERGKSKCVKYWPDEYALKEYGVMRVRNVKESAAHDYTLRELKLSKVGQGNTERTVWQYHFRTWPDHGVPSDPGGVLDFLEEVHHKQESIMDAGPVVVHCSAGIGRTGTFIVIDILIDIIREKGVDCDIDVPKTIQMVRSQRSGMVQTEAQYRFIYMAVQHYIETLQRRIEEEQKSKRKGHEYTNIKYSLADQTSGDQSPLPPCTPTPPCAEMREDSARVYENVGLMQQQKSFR

`CCCCCCCCCCCC1=C(O)C(=O)C=C(O)C1=O` [Embelin]: the IC50 turned out to be 10.5 ± 0.44 µM in the experiment on NCI-H838 cells (NCI-H838, 48 h, read-out: IC50 at 48 h); 39.79 ± 0.27 µM in the experiment with NCI-H838 cells (NCI-H838, RAS-wild type, 24 h, read-out: IC50 at 24 h); 9.2 ± 0.3 µM in the experiment with NCI-H358 cells (NCI-H358, 48 h, read-out: IC50 at 48 h); 12.2 ± 0.4 µM in the experiment with NCI-H358 cells (NCI-H358, KRAS G12C, 24 h, read-out: IC50 at 24 h); 8.73 ± 0.43 µM in the experiment on SNU-C2A cells (48 h, read-out: IC50 at 48 h); 22.4 ± 0.5 µM in the experiment with SNU-C2A cells (KRAS G12D, 24 h, read-out: IC50 at 24 h). Besides, the IC50 in the experiment with NCI-H1915 cells (NCI-H1915, 48 h, read-out: IC50 at 48 h) was found to be 11.4 ± 0.39 µM; with NCI-H1915 cells (NCI-H1915, HRAS, 24 h, read-out: IC50 at 24 h), 60.6 ± 0.41 µM; in the experiment with SW1116 cells (SW1116, 48 h, read-out: IC50 at 48 h) it was 7 ± 0.35 µM; in the experiment with SW1116 cells (SW1116, KRAS G12A, 24 h, read-out: IC50 at 24 h), 19.5 ± 0.29 µM; in the experiment with NCI-H1755 cells (NCI-H1755, 48 h, read-out: IC50 at 48 h), 14.2 ± 0.27 µM; with NCI-H1755 cells (NCI-H1755, RAS-wild type, 24 h, read-out: IC50 at 24 h) it was 49.4 ± 0.32 µM. Besides, the IC50 in the experiment on HCT116 cells (HCT116, 48 h, read-out: IC50 at 48 h) was 9.6 ± 0.4 µM; with HCT116 cells (HCT116, KRAS G13D, 24 h, read-out: IC50 at 24 h), 18.2 ± 0.9 µM; in the experiment on NCI-H1693 cells (NCI-H1693, 48 h, read-out: IC50 at 48 h) it was 16.2 ± 0.37 µM; in the experiment with NCI-H1693 cells (NCI-H1693, RAS-wild type, 24 h, read-out: IC50 at 24 h), 42.57 ± 0.34 µM; in the experiment on NCI-H1944 cells (NCI-H1944, 48 h, read-out: IC50 at 48 h) it was 21.6 ± 0.9 µM; in the experiment on NCI-H1944 cells (NCI-H1944, KRAS G13D, 24 h, read-out: IC50 at 24 h), 31 ± 0.2 µM. Also, the IC50 with HCC827 cells came out at 4.95 ± 0.28 µM; in the experiment with SW620 cells (SW620, 48 h, read-out: IC50 at 48 h), 5.06 ± 0.45 µM; in the experiment with SW620 cells (SW620, KRAS G12V, 24 h, read-out: IC50 at 24 h) it was 18.6 ± 0.4 µM. In addition, the “effect on intracellular ATP” value in the experiment with NCI‐H2122 and A549 cells is “significantly inhibited ATP release”. Moreover, the dissociation constant Kd on His‐ΔSHP2^K325A turned out to be 0.346 µM.

What is called IC50 is the point on the concentration scale where inhibition reaches its midpoint. For orientation: Kd means the concentration at which binding is half-saturated.

Source of the values: article PMC12005787, “Synthetic Lethality of SHP2 and XIAP Suppresses Proliferation and Metastasis in KRAS‐mutant Nonsmall Cell Lung Cancer” (Advanced Science, 2025).
